Tests used:
HMVECs [1] = assay: Endothelial cell migration assay (modified Boyden chamber); type: cell-based, human
Method: Endothelial Cell Migration Assay-The endothelial cell migration assay was performed as described in, […], Methods Mol Med. 78: 337-47 (2003), incorporated herein by reference. Briefly, HMVECs were starved overnight in media containing 0.1% bovine serum albumin (BSA), harvested, resuspended in DME with 0.1% BSA, plated on the bottom side of a modified Boyden chamber (Nucleopore Corporation, MD), and allowed to attach in the inverted chamber for 2 hours at 37° C. The chamber was then re-inverted, test substances added to the wells of the upper chamber and cells were allowed to migrate for four hours at 37° C. Membranes were recovered, fixed and stained and the number of cells that had migrated to the upper chamber per ten high power fields was counted. Background migration in DME+0.1% BSA was subtracted and the data reported as the number of cells migrated per 10 high power fields (400×). VEGF (R&D Systems, Minneapolis, Minn.) was used as a positive control at a concentration of 100 pg/ml.

Rap1 = type: cell-based, human; details: HMVECs
Method: Briefly, cells are lysed in a suitable lysis buffer and clarified by centrifugation. Clarified lysates are incubated with a GST fusion protein containing the Rap-1 binding domain of Ral-GDS coupled to glutathione-sepharose beads. Proteins bound to the beads are then extracted and resolved by sodium dodecyl sulfate-polyacrylamide gel electrophoresis (SDS-PAGE) and subjected to western blot analysis using anti-Rap-1 antibodies.
Rap1 pull down assay—HMVECs were grown to subconfluent in 100 mm plates, starved in EBM2 medium plus 0.1% BSA over night and treated as indicated.

[2] = system: HMVECs in scaffolds implanted in SCID mice; assay: SCID mouse model of human angiogenesis, in vivo microvessel density; details: daily local injection for 5 days
Text: A further assay for evaluating inhibition of tubule formation suitable for use in the presently described methods is an in vivo assay of microvessel density. In this regard, functional human microvessels can be engineered in SCID mice by implanting human dermal microvascular endothelial cells (HMVECs) seeded in biodegradable scaffolds, as described by Nor J E, et al., Lab Invest 81: 453-63 (2001), incorporated herein by reference. These cells organize into microvessels that anastomose with the host vasculature and transport mouse blood cells. Differences in vessel density are quantified post-euthanization by standard immunohistochemical techniques using, for example, anti-human CD31, and counting the number of CD31-positive vessels in a set number of random fields.
SCID Mouse Model of Human Angiogenesis—Functional human microvessels were induced in severe combined immunodeficient (SCID) mice (CB-17 SCID; Taconic, Germantown, N.Y., USA). […]
Determination of In Vivo Microvessel Densities—Formalin fixed, paraffin-embedded implants were generated in order to quantify differences in vessel densities in the tumors of the treated and untreated animals. […] The number of CD31+blood vessels was counted in 10 random fields per sponge using an optical microscope (×400).

[3] = system: age-related macular degeneration; details: 1-2 drops of 0.1% w/v aqueous ophthalmic composition, each eye twice daily
Text: A patient complaining of vision loss is diagnosed with age-related macular degeneration.

HMVECs [4] = assay: Cell morphology / actin stress fiber staining; type: cell-based, human; details: treated or lentivirus-transduced
endothelial cells = details: 0.3 mM, low serum conditions, data not shown
CREB, a substrate of PKA = assay: Phospho-CREB western analysis; details: HMVEC lysates; forskolin given with IBMX per FIG. 5B legend
Text: Cell lysate extraction and western analysis—Cell lysates were collected, resolved by SDS-PAGE, and analyzed by western blot using anti-Phospho-CREB (Ser133) antibody or anti-tubulin antibody at a dilution of 1:1000 or anti-Rap1 at a dilution of 1:500, using standard methods as described in Kuo, W L et al., J. Biol. Chem. 279: 23073-81 (2004), incorporated herein by reference.

Method for mouse cornea: The effect of 8CPT-2Me-cAMP treatment on FGF-induced angiogenesis was investigated using the mouse corneal assay. Mice were injected with either 0.6 or 6 μmoles of 8CPT-2Me-cAMP, concentrations similar to those used for the skin implant scaffolds.

Row | SMILES | effect on VEGF-induced chemotaxis (HMVECs [1]) | concentration giving complete inhibition of VEGF-stimulated migration (HMVECs [1]) [µM] | migration in the absence of VEGF (nonspecific/background migration) (HMVECs [1]; no VEGF) | Rap1 activation (GTP-bound Rap1) (Rap1) | inhibition of number of microvessels ([2]; 0.03 μmoles per implant) | inhibition of number of microvessels ([2]; 0.3 μmoles per implant) | ocular function [3] | average area of vascularization relative to control mice (mouse cornea; 0.6 μmoles) | mice with detectable vascularization (mouse cornea; 0.6 μmoles, control 6 out of 6) | FGF-induced angiogenesis (mouse cornea; 6 μmoles (higher dose)) | mice showing angiogenesis (mouse cornea; 6 μmoles, control 6 out of 6) | cell morphology (HMVECs [4]) | apoptotic induction (endothelial cells) | CREB phosphorylation (CREB, a substrate of PKA)
1 | O=C(Nc1ncnc2c1ncn2[C@@H]1O[C@@H]2COP(=O)(O)O[C@H]2[C@H]1O)c1ccccc1 [6-Benz-cAMP, N^6-Benzoyladenosine-3′,5′cyclic monophosphate] | no effect |  |  |  |  |  |  |  |  |  |  |  |  | 
2 | CO[C@@H]1[C@@H]2OP(=O)(O)OC[C@H]2O[C@H]1n1c(Sc2ccc(Cl)cc2)nc2c(N)ncnc21 [8CPT-2Me-cAMP, 8-(4-chlorophenylthio)-2′-O-methyladenosine-3′,5′cyclic monophosophate] |  | 2.5 | no suppression | robust stimulator | roughly 50% | greater than 90% | noticeable improvement | about half | 6 out of 8 | effectively suppressed | 1 out of 10 | this effect could be mimicked | did not detect apoptotic induction | did not induce significant CREB phosphorylation
3 | C[C@@H](N)[C@H]1CC[C@H](C(=O)Nc2ccncc2)CC1 [Y-27632] | dose-dependent inhibition |  |  |  |  |  |  |  |  |  |  |  |  | 
